Test results from US20230085307A1, “PYRIDAZINONE COMPOUND AND HERBICIDE” (NISSAN CHEMICAL CORPORATION, priority 2019, published 2023).

Experiments:
[1] = system: redroot pigweed; experiment: Test Example 5: herbicidal effect by foliage application, plastic box (Table 20, symbol N); type: in vivo, redroot pigweed (Amaranthus retroflexus); details: foliage application, 320 g/ha, three weeks after application
Procedure, shortened: (§1)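 Post-emergence foliar test in sterilized diluvial soil. Compound applied as water-diluted emulsion at a predetermined rate to 14-day-old plants; evaluation at three weeks.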

[2] = system: chickweed; experiment: Test Example 4: herbicidal effect by soil treatment (Table 19, symbol P); type: in vivo, common chickweed (Stellaria media); details: amount of applied herbicide 320 g/ha
Procedure, shortened: (§2)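 Emulsion of test compound, water-diluted to predetermined amount, sprayed on soil after sowing (seed depth ~1.5 cm, sterilized diluvial soil). Greenhouse, 25–30° C. Effect graded at three weeks post-spray.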

[3] = system: barnyard grass; experiment: Test Example 3: herbicidal effect by foliage application, Wagner pot (Table 18, symbol H); type: in vivo, barnyard grass (Echinochloa crus-galli); details: 320 g/ha
Procedure, shortened: (§3)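 Plants were sown in alluvial soil held under 0.1–0.5 cm standing water and grown 14 days in a greenhouse at 25–30 °C. An emulsifiable formulation, water-diluted to the set dose, was then sprayed onto the foliage, and effects were scored three weeks later using previously defined criteria.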

[4] = system: rapeseed; experiment: Test Example 4: effect on crop by soil treatment (Table 19, symbol g); type: in vivo; details: amount of applied herbicide 320 g/ha
Procedure, shortened: as §2

[5] = system: blackgrass; experiment: Test Example 5: herbicidal effect by foliage application, plastic box (Table 20, symbol J); type: in vivo, blackgrass (Alopecurus myosuroides); details: foliage application, 320 g/ha, three weeks after application
Procedure, shortened: as §1

[6] = system: persian speedwell; experiment: Test Example 4: herbicidal effect by soil treatment (Table 19, symbol R); type: in vivo, Persian speedwell (Veronica persica); details: amount of applied herbicide 320 g/ha
Procedure, shortened: as §2

[7] = system: windgrass; experiment: Test Example 5: herbicidal effect by foliage application, plastic box (Table 20, symbol L); type: in vivo, windgrass (Apera spica-venti); details: foliage application, 320 g/ha, three weeks after application
Procedure, shortened: as §1

[8] = system: velvetleaf; experiment: Test Example 5: herbicidal effect by foliage application, plastic box (Table 20, symbol M); type: in vivo, velvetleaf (Abutilon theophrasti); details: foliage application, 320 g/ha, three weeks after application
Procedure, shortened: as §1

[9] = system: directly sowed rice; experiment: Test Example 3: effect on crop by foliage application, Wagner pot (Table 18, symbol b); type: in vivo; details: 320 g/ha
Protocol: [Test Example 3] Herbicidal Effect Test by Foliage Application After alluvial soil was placed into 1/10000 are of Wagner pot, water was poured and mixed to form a submerged condition having a water depth of 0.1 cm to 0.5 cm. Seeds of barnyard grass, Chinese sprangletop, rice flat sedge, and rice were sowed and the pot was placed in a greenhouse at 25° C. to 30° C. for growth of the plants. After 14-day growth of the plants, the emulsion agent of the compound of the present invention prepared according to Formulation Example 2 was diluted with water so as to achieve a predetermined herbicide amount, and the diluted emulsion agent was uniformly applied to a foliage part with a small-sized spray. Three weeks after the herbicide application, the effect of the herbicide on each plant was evaluated according to the criteria of Test Example 1.

[10] = system: wild oat; experiment: Test Example 5: herbicidal effect by foliage application, plastic box (Table 20, symbol I); type: in vivo, wild oat (Avena fatua); details: foliage application, 320 g/ha, three weeks after application
Procedure, shortened: as §1

[11] = system: southern crabgrass; experiment: Test Example 5: herbicidal effect by foliage application, plastic box (Table 20, symbol F); type: in vivo, southern crabgrass (Digitaria ciliaris); details: foliage application, 320 g/ha, three weeks after application
Procedure, shortened: as §1

[12] = system: wheat; experiment: Test Example 5: effect on crop by foliage application, plastic box (Table 20, symbol e); type: in vivo; details: 320 g/ha, three weeks after application
Text: (§4) [Test Example 5] Herbicidal Effect Test by Foliage Application
(§5) Sterilized diluvial soil was placed in a plastic box having a length of 21 cm, a width of 13 cm, and a depth of 7 cm. The seeds of each of southern crabgrass, green foxtail, barnyard grass, wild oat, blackgrass, Italian ryegrass, windgrass, velvetleaf, redroot pigweed, lambsquarters, chickweed, false cleavers, persian speedwell, corn, soybean, rice, wheat, beet, and rapeseed were sowed in a spot-like manner and covered with the soil having a thickness of about 1.5 cm. Thereafter, the plants were grown in a greenhouse at 25° C. to 30° C. After 14-day growth of the plants, the emulsion agent of the compound of the present invention prepared according to Formulation Example 2 was diluted with water so as to achieve a predetermined herbicide amount, and the diluted emulsion agent was uniformly applied to a foliage part with a small-sized spray. Three weeks after the herbicide application, the effect of the herbicide on each plant was evaluated according to the criteria of Test Example 1.

[13] = system: beet; experiment: Test Example 5: effect on crop by foliage application, plastic box (Table 20, symbol f); type: in vivo; details: 320 g/ha, three weeks after application
Procedure, shortened: as §1

[14] = system: barnyard grass; experiment: Test Example 5: herbicidal effect by foliage application, plastic box (Table 20, symbol H); type: in vivo, barnyard grass (Echinochloa crus-galli); details: foliage application, 320 g/ha, three weeks after application
Procedure, shortened: as §1

[15] = system: soybean; experiment: Test Example 5: effect on crop by foliage application, plastic box (Table 20, symbol d); type: in vivo; details: 320 g/ha, three weeks after application
Text: as §4, §5

[16] = system: beet; experiment: Test Example 4: effect on crop by soil treatment (Table 19, symbol f); type: in vivo; details: amount of applied herbicide 320 g/ha
Text: [Test Example 4] Herbicidal Effect Test by Soil Treatment
as §5, with “Subsequently,” for “Thereafter, the plants were grown in a greenhouse at 25° C. to 30° C. After 14-day growth of the plants,”, “the surface of the soil” for “a foliage part”, “spray. The plastic box was placed in a greenhouse at 25° C. to 30° C. for growth of the plants.” for “spray.”

[17] = system: chickweed; experiment: Test Example 5: herbicidal effect by foliage application, plastic box (Table 20, symbol P); type: in vivo, common chickweed (Stellaria media); details: foliage application, 320 g/ha, three weeks after application
Procedure, shortened: as §1

[18] = system: lambsquarters; experiment: Test Example 4: herbicidal effect by soil treatment (Table 19, symbol O); type: in vivo, lambsquarters (Chenopodium album); details: amount of applied herbicide 320 g/ha
Procedure, shortened: as §2

[19] = system: windgrass; experiment: Test Example 4: herbicidal effect by soil treatment (Table 19, symbol L); type: in vivo, windgrass (Apera spica-venti); details: amount of applied herbicide 320 g/ha
Procedure, shortened: as §2

[20] = system: green foxtail; experiment: Test Example 4: herbicidal effect by soil treatment (Table 19, symbol G); type: in vivo, green foxtail (Setaria viridis); details: amount of applied herbicide 320 g/ha
Procedure, shortened: as §2

[21] = system: Chinese sprangletop; experiment: Test Example 3: herbicidal effect by foliage application, Wagner pot (Table 18, symbol D); type: in vivo, chinese sprangletop (Leptochloa chinensis); details: 320 g/ha
Procedure, shortened: as §3

[22] = system: corn; experiment: Test Example 5: effect on crop by foliage application, plastic box (Table 20, symbol c); type: in vivo; details: 320 g/ha, three weeks after application
Procedure, shortened: as §1

[23] = system: corn; experiment: Test Example 4: effect on crop by soil treatment (Table 19, symbol c); type: in vivo; details: amount of applied herbicide 320 g/ha
Procedure, shortened: as §2

[24] = system: velvetleaf; experiment: Test Example 4: herbicidal effect by soil treatment (Table 19, symbol M); type: in vivo, velvetleaf (Abutilon theophrasti); details: amount of applied herbicide 320 g/ha
Procedure, shortened: as §2

[25] = system: southern crabgrass; experiment: Test Example 4: herbicidal effect by soil treatment (Table 19, symbol F); type: in vivo, southern crabgrass (Digitaria ciliaris); details: amount of applied herbicide 320 g/ha
Procedure, shortened: as §2

[26] = system: redroot pigweed; experiment: Test Example 4: herbicidal effect by soil treatment (Table 19, symbol N); type: in vivo, redroot pigweed (Amaranthus retroflexus); details: amount of applied herbicide 320 g/ha
Procedure, shortened: as §2

[27] = system: soybean; experiment: Test Example 4: effect on crop by soil treatment (Table 19, symbol d); type: in vivo; details: amount of applied herbicide 320 g/ha
Procedure, shortened: as §2

[28] = system: Italian ryegrass; experiment: Test Example 5: herbicidal effect by foliage application, plastic box (Table 20, symbol K); type: in vivo, Italian ryegrass (Lolium multiflorum); details: foliage application, 320 g/ha, three weeks after application
Procedure, shortened: as §1

[29] = system: rice flat sedge; experiment: Test Example 3: herbicidal effect by foliage application, Wagner pot (Table 18, symbol E); type: in vivo, rice flat sedge (Cyperus iria); details: 320 g/ha
Procedure, shortened: as §3

[30] = system: rapeseed; experiment: Test Example 5: effect on crop by foliage application, plastic box (Table 20, symbol g); type: in vivo; details: 320 g/ha, three weeks after application
Procedure, shortened: as §1

[31] = system: barnyard grass; experiment: Test Example 4: herbicidal effect by soil treatment (Table 19, symbol H); type: in vivo, barnyard grass (Echinochloa crus-galli); details: amount of applied herbicide 320 g/ha
Procedure, shortened: as §2

[32] = system: blackgrass; experiment: Test Example 4: herbicidal effect by soil treatment (Table 19, symbol J); type: in vivo, blackgrass (Alopecurus myosuroides); details: amount of applied herbicide 320 g/ha
Procedure, shortened: as §2

[33] = system: lambsquarters; experiment: Test Example 5: herbicidal effect by foliage application, plastic box (Table 20, symbol O); type: in vivo, lambsquarters (Chenopodium album); details: foliage application, 320 g/ha, three weeks after application
Procedure, shortened: as §1

[34] = system: Italian ryegrass; experiment: Test Example 4: herbicidal effect by soil treatment (Table 19, symbol K); type: in vivo, Italian ryegrass (Lolium multiflorum); details: amount of applied herbicide 320 g/ha
Procedure, shortened: as §2

[35] = system: green foxtail; experiment: Test Example 5: herbicidal effect by foliage application, plastic box (Table 20, symbol G); type: in vivo, green foxtail (Setaria viridis); details: foliage application, 320 g/ha, three weeks after application
Procedure, shortened: as §1

[36] = system: persian speedwell; experiment: Test Example 5: herbicidal effect by foliage application, plastic box (Table 20, symbol R); type: in vivo, Persian speedwell (Veronica persica); details: foliage application, 320 g/ha, three weeks after application
Procedure, shortened: as §1

[37] = system: wild oat; experiment: Test Example 4: herbicidal effect by soil treatment (Table 19, symbol I); type: in vivo, wild oat (Avena fatua); details: amount of applied herbicide 320 g/ha
Procedure, shortened: as §2

[38] = system: wheat; experiment: Test Example 4: effect on crop by soil treatment (Table 19, symbol e); type: in vivo; details: amount of applied herbicide 320 g/ha
Procedure, shortened: as §2

**Q.** What does the source list for `COc1ccc2c(-c3c(O)c(N)nn(C)c3=O)c(-c3ccccc3OC)sc2c1` [Compound No. 3-087, 6-amino-5-hydroxy-4-(6-methoxy-2-(2-methoxyphenyl)benzo[b]thiophen-3-yl)-2-methyl pyridazin-3(2H)-one]?
**A.** N: redroot pigweed, herbicidal effect grade [1]: 1 (Herbicidal rate of 5% or more and less than 20%); melting point: 286 to 288 °C; P: chickweed, herbicidal effect grade [2]: 3 (Herbicidal rate of 40% or more and less than 70%); herbicidal effect on barnyard grass (H) [3]: 4 (Herbicidal rate of 70% or more and less than 90%); g: rapeseed, effect on crop grade [4]: 0 (Herbicidal rate of 5% or less (almost no effect)); J: blackgrass, herbicidal effect grade [5]: 4 (Herbicidal rate of 70% or more and less than 90%); R: persian speedwell, herbicidal effect grade [6]: 3 (Herbicidal rate of 40% or more and less than 70%); L: windgrass, herbicidal effect grade [7]: 5 (Herbicidal rate of 90% or more (almost completely withered)); M: velvetleaf, herbicidal effect grade [8]: 0 (Herbicidal rate of 5% or less (almost no effect)); effect on directly sowed rice (b) [9]: 1 (Herbicidal rate of 5% or more and less than 20%); I: wild oat, herbicidal effect grade [10]: 0 (Herbicidal rate of 5% or less (almost no effect)); F: southern crabgrass, herbicidal effect grade [11]: 0 (Herbicidal rate of 5% or less (almost no effect)); e: wheat, effect on crop grade [12]: 0 (Herbicidal rate of 5% or less (almost no effect)); f: beet, effect on crop grade [13]: 4 (Herbicidal rate of 70% or more and less than 90%); H: barnyard grass, herbicidal effect grade [14]: 3 (Herbicidal rate of 40% or more and less than 70%); d: soybean, effect on crop grade [15]: 0 (Herbicidal rate of 5% or less (almost no effect)); f: beet, effect on crop grade [16]: 0 (Herbicidal rate of 5% or less (almost no effect)); P: chickweed, herbicidal effect grade [17]: 5 (Herbicidal rate of 90% or more (almost completely withered)); O: lambsquarters, herbicidal effect grade [18]: 0 (Herbicidal rate of 5% or less (almost no effect)); L: windgrass, herbicidal effect grade [19]: 0 (Herbicidal rate of 5% or less (almost no effect)); G: green foxtail, herbicidal effect grade [20]: 0 (Herbicidal rate of 5% or less (almost no effect)); herbicidal effect on Chinese sprangletop (D) [21]: 0 (Herbicidal rate of 5% or less (almost no effect)); c: corn, effect on crop grade [22]: 0 (Herbicidal rate of 5% or less (almost no effect)); c: corn, effect on crop grade [23]: 0 (Herbicidal rate of 5% or less (almost no effect)); M: velvetleaf, herbicidal effect grade [24]: 0 (Herbicidal rate of 5% or less (almost no effect)); F: southern crabgrass, herbicidal effect grade [25]: 0 (Herbicidal rate of 5% or less (almost no effect)); N: redroot pigweed, herbicidal effect grade [26]: 0 (Herbicidal rate of 5% or less (almost no effect)); d: soybean, effect on crop grade [27]: 0 (Herbicidal rate of 5% or less (almost no effect)); K: Italian ryegrass, herbicidal effect grade [28]: 1 (Herbicidal rate of 5% or more and less than 20%); herbicidal effect on rice flat sedge (E) [29]: 3 (Herbicidal rate of 40% or more and less than 70%); g: rapeseed, effect on crop grade [30]: 4 (Herbicidal rate of 70% or more and less than 90%); H: barnyard grass, herbicidal effect grade [31]: 0 (Herbicidal rate of 5% or less (almost no effect)); J: blackgrass, herbicidal effect grade [32]: 0 (Herbicidal rate of 5% or less (almost no effect)); O: lambsquarters, herbicidal effect grade [33]: 0 (Herbicidal rate of 5% or less (almost no effect)); K: Italian ryegrass, herbicidal effect grade [34]: 0 (Herbicidal rate of 5% or less (almost no effect)); G: green foxtail, herbicidal effect grade [35]: 0 (Herbicidal rate of 5% or less (almost no effect)); R: persian speedwell, herbicidal effect grade [36]: 4 (Herbicidal rate of 70% or more and less than 90%); I: wild oat, herbicidal effect grade [37]: 0 (Herbicidal rate of 5% or less (almost no effect)); e: wheat, effect on crop grade [38]: 0 (Herbicidal rate of 5% or less (almost no effect))
